# Measured values as given in patent publication US8247211B2, “Glycopeptide antibiotics” (American Cyanamid Company, priority 2001, dated 2012).
# Experiments:
# Assay in all cases: In vitro antibacterial evaluation: minimum inhibitory concentration (MIC), broth dilution method
# Type in all cases: cell-based
# [1] = system: Enterococcus sp.
# In short: (§1)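 Susceptibility determined by NCCLS-recommended broth dilution (M7-A2), Muller-Hinton II […]. Concentration span 64-0.06 μg/mL, inoculum 5×10^5 CFU/mL. Isolates include strains resistant to methicillin, penicillin and/or vancomycin.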
# [2] = system: Streptococcus sp.; settings: broth dilution, 18 hours at 35° C.; for MIC Streptococcus pyogenes (GC 4563): strain GC 4563
# In short: as §1
# [3] = system: Escherichia coli
# In short: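 NCCLS M7-A2 broth dilution; Muller-Hinton II […]; 5×10^5 CFU/mL; 64-0.06 μg/mL. MIC = lowest concentration with no growth.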
# [4] = system: Staphylococcus sp.; settings: 18 hours at 35° C.
# In short: as §1
# [5] = system: Escherichia coli; remark: listed apart in the source
# [6] = Enterococcus faecalis (ATCC 29212)
# [7] = Enterococcus faecalis (GC 4553)
# [8] = Enterococcus faecalis (GC 4554)
structure (smiles),measurement,setting,value
"CC(C)CC(=O)OC1C(OC2C(CO)OC(Oc3ccc(CC4NC(=O)C(C(C)c5cccs5)NC(=O)CNC(=O)C(CO)NC(=O)C(C(O)C5CNC(=N)N5C5OC(CO)C(O)C(O)C5O)NC(=O)C(C(O)C5CNC(=N)N5)NC4=O)cc3)C(O)C2O)OC(CO)C(O)C1O (stereo not shown) [Example 265a, Cyclo[3-(2-thienyl)-2-aminobutanoyl-O-[4-O-[2-O-(3-methylbutanoyl)hexopyranosyl]hexopyranosyl]tyrosyl-3-(2-iminoimidazolidin-4-yl)seryl-3-(3-hexopyranosyl-2-iminoimidazolidin-4-yl)serylserylglycyl]]",MIC Enterococcus avium (GC 4558),[1]; Enterococcus avium (GC 4558),64 mg/L
same,MIC Enterococcus faecalis (ATCC 29212),[1]; [6],64 mg/L
same,MIC Enterococcus faecalis (GC 4553),[1]; [7],>64 mg/L
same,MIC Enterococcus faecalis (GC 4554),[1]; [8],>64 mg/L
same,MIC Enterococcus faecium (GC 2243),[1]; Enterococcus faecium (GC 2243),>64 mg/L
same,MIC Enterococcus faecium (GC 4556),[1]; Enterococcus faecium (GC 4556),64 mg/L
same,MIC Enterococcus faecium (GC 4557),[1]; Enterococcus faecium (GC 4557),8 mg/L
same,MIC Streptococcus pyogenes (GC 4563),[2],4 mg/L
same,MIC Streptococcus pyogenes (ID-3187),[2]; strain ID-3187,64 mg/L
same,MIC Escherichia coli (GC 4559),[3],>64 mg/L
same,MIC Escherichia coli (GC 4560),[3],4 mg/L
same,MIC Coagulase Negative Staphylococcus (GC 4547),[4],8 mg/L
same,MIC Coagulase Negative Staphylococcus (GC 4547),[4]; broth dilution,8 mg/L
same,MIC Coagulase Negative Staphylococcus (GC 4548),[4],8 mg/L
same,MIC Coagulase Negative Staphylococcus (GC 4548),[4]; broth dilution,8 mg/L
same,MIC Coagulase Negative Staphylococcus (GC 4549),[4],4 mg/L
same,MIC Coagulase Negative Staphylococcus (GC 4549),[4]; broth dilution,4 mg/L
same,MIC Coagulase Negative Staphylococcus (GC 4551),[4],8 mg/L
same,MIC Coagulase Negative Staphylococcus (GC 4551),[4]; broth dilution,8 mg/L
same,MIC Staphylococcus aureus (ATCC 29213),[4],16 mg/L
same,MIC Staphylococcus aureus (ATCC 29213),[4]; broth dilution,16 mg/L
same,MIC Staphylococcus aureus (GC 1131),[4],32 mg/L
same,MIC Staphylococcus aureus (GC 1131),[4]; broth dilution,32 mg/L
same,MIC Staphylococcus aureus (GC 4541),[4],16 mg/L
same,MIC Staphylococcus aureus (GC 4541),[4]; broth dilution,16 mg/L
same,MIC Staphylococcus aureus (GC 4542),[4],16 mg/L
same,MIC Staphylococcus aureus (GC 4542),[4]; broth dilution,16 mg/L
same,MIC Staphylococcus aureus (GC 4544),[4],8 mg/L
same,MIC Staphylococcus aureus (GC 4544),[4]; broth dilution,8 mg/L
same,MIC Staphylococcus aureus (GC 4545),[4],16 mg/L
same,MIC Staphylococcus aureus (GC 4545),[4]; broth dilution,16 mg/L
same,MIC Staphylococcus aureus-SMITH (GC 4543),[4],8 mg/L
same,MIC Staphylococcus aureus-SMITH (GC 4543),[4]; broth dilution,8 mg/L
same,MIC Staphylococcus haemolyticus (GC 4546),[4],8 mg/L
same,MIC Staphylococcus haemolyticus (GC 4546),[4]; broth dilution,8 mg/L
same,MIC Escherichia coli (ATCC 25922),[5],>64 mg/L
"CC(c1ccccc1)C1NC(=O)CNC(=O)C(CO)NC(=O)C(C(O)C2CNC(=N)N2C2OC(CO)C(O)C(O)C2O)NC(=O)C(C(O)C2CNC(=N)N2)NC(=O)C(Cc2ccc(OC3OC(CO)C(OC4OC(CO)C(O)C(O)C4O)C(O)C3O)cc2N)NC1=O (stereo not drawn) [Example 287, Cyclo[glycyl-β-methylphenylalanyl-2-amino-O-(4-O-hexopyranosylhexopyranosyl)tyrosyl-3-(2-iminoimidazolidin-4-yl)seryl-3-(3-hexopyranosyl-2-iminoimidazolidin-4-yl)serylseryl]]",MIC Enterococcus avium (GC 4558),[1]; Enterococcus avium (GC 4558),64 mg/L
same,MIC Enterococcus faecalis (ATCC 29212),[1]; [6],>64 mg/L
same,MIC Enterococcus faecalis (GC 4553),[1]; [7],>64 mg/L
same,MIC Enterococcus faecalis (GC 4554),[1]; [8],>64 mg/L
same,MIC Enterococcus faecalis (GC 6189),[1]; Enterococcus faecalis (GC 6189),>64 mg/L
same,MIC Enterococcus faecium (GC 2243),[1]; Enterococcus faecium (GC 2243),>64 mg/L
same,MIC Enterococcus faecium (GC 4556),[1]; Enterococcus faecium (GC 4556),>64 mg/L
same,MIC Enterococcus faecium (GC 4557),[1]; Enterococcus faecium (GC 4557),64 mg/L
same,MIC Enterococcus faecalis (ATCC 29212),"[1]; broth dilution, 18 hours at 35° C., strain ATCC 29212",>64 mg/L
same,MIC Enterococcus faecalis (GC 2242),"[1]; broth dilution, 18 hours at 35° C., strain GC 2242",>64 mg/L
same,MIC Enterococcus faecium (GC 2243),"[1]; broth dilution, 18 hours at 35° C., strain GC 2243",>64 mg/L
same,MIC Enterococcus faecalis (GC 2691),"[1]; broth dilution, 18 hours at 35° C., strain GC 2691",>64 mg/L
same,MIC Enterococcus faecalis (GC 3059),"[1]; broth dilution, 18 hours at 35° C., strain GC 3059",>64 mg/L
same,MIC Enterococcus faecalis (GC 4552),"[1]; broth dilution, 18 hours at 35° C., strain GC 4552",>64 mg/L
same,MIC Enterococcus faecalis (GC 4553),"[1]; broth dilution, 18 hours at 35° C., strain GC 4553",>64 mg/L
same,MIC Enterococcus faecalis (GC 4554),"[1]; broth dilution, 18 hours at 35° C., strain GC 4554",>64 mg/L
same,MIC Enterococcus faecium (GC 4556),"[1]; broth dilution, 18 hours at 35° C., strain GC 4556",>64 mg/L
same,MIC Enterococcus faecium (GC 4557),"[1]; broth dilution, 18 hours at 35° C., strain GC 4557",64 mg/L
same,MIC Enterococcus avium (GC 4558),"[1]; broth dilution, 18 hours at 35° C., strain GC 4558",64 mg/L
same,MIC Enterococcus faecalis (GC 6189),"[1]; broth dilution, 18 hours at 35° C., strain GC 6189",>64 mg/L
same,MIC Streptococcus pneumoniae (ATCC 6301),[2]; strain ATCC 6301,64 mg/L
same,MIC Streptococcus pneumoniae (GC 1894),[2]; strain GC 1894,64 mg/L
same,MIC Streptococcus pyogenes (GC 4563),[2],>64 mg/L
same,MIC Streptococcus agalactiae (GC 4564),[2]; strain GC 4564,>64 mg/L
same,MIC Streptococcus pneumoniae (GC 4565),[2]; strain GC 4565,64 mg/L
same,MIC Escherichia coli (GC 4559),[3],>64 mg/L
same,MIC Escherichia coli (GC 4560),[3],>64 mg/L
same,MIC Coagulase Negative Staphylococcus (GC 4547),[4],>64 mg/L
same,MIC Coagulase Negative Staphylococcus (GC 4547),[4]; broth dilution,>64 mg/L
same,MIC Coagulase Negative Staphylococcus (GC 4548),[4],>64 mg/L
same,MIC Coagulase Negative Staphylococcus (GC 4548),[4]; broth dilution,>64 mg/L
same,MIC Coagulase Negative Staphylococcus (GC 4549),[4],>64 mg/L
same,MIC Coagulase Negative Staphylococcus (GC 4549),[4]; broth dilution,>64 mg/L
same,MIC Coagulase Negative Staphylococcus (GC 4551),[4],>64 mg/L
same,MIC Coagulase Negative Staphylococcus (GC 4551),[4]; broth dilution,>64 mg/L
same,MIC Coagulase Negative Staphylococcus (GC 6257),[4],>64 mg/L
same,MIC Coagulase Negative Staphylococcus (GC 6257),[4]; broth dilution,>64 mg/L
same,MIC Staphylococcus aureus (ATCC 29213),[4],>64 mg/L
same,MIC Staphylococcus aureus (ATCC 29213),[4]; broth dilution,>64 mg/L
same,MIC Staphylococcus aureus (GC 1131),[4],>64 mg/L
same,MIC Staphylococcus aureus (GC 1131),[4]; broth dilution,>64 mg/L
same,MIC Staphylococcus aureus (GC 3051),[4],>64 mg/L
same,MIC Staphylococcus aureus (GC 3051),[4]; broth dilution,>64 mg/L
same,MIC Staphylococcus aureus (GC 3053),[4],>64 mg/L
same,MIC Staphylococcus aureus (GC 3053),[4]; broth dilution,>64 mg/L
same,MIC Staphylococcus aureus (GC 4541),[4],>64 mg/L
same,MIC Staphylococcus aureus (GC 4541),[4]; broth dilution,>64 mg/L
same,MIC Staphylococcus aureus (GC 4542),[4],>64 mg/L
same,MIC Staphylococcus aureus (GC 4542),[4]; broth dilution,>64 mg/L
same,MIC Staphylococcus aureus (GC 4544),[4],>64 mg/L
same,MIC Staphylococcus aureus (GC 4544),[4]; broth dilution,>64 mg/L
same,MIC Staphylococcus aureus (GC 4545),[4],>64 mg/L
same,MIC Staphylococcus aureus (GC 4545),[4]; broth dilution,>64 mg/L
same,MIC Staphylococcus aureus-SMITH (GC 4543),[4],>64 mg/L
same,MIC Staphylococcus aureus-SMITH (GC 4543),[4]; broth dilution,>64 mg/L
same,MIC Staphylococcus haemolyticus (GC 4546),[4],>64 mg/L
same,MIC Staphylococcus haemolyticus (GC 4546),[4]; broth dilution,>64 mg/L
same,MIC Escherichia coli (ATCC 25922),[5],>64 mg/L
